Results: PubChem BioAssay AID248 (DTP/NCI, 2004)
“And” between values parts separate entries of the source, which are not always exact repeats. Equal values may be shown once. Toxic doses and inconclusive results are not listed. No stated cut-off is given here; in the data, active means T/C of 150% or more; inactive means T/C below 125%.

Tested on: L1210 leukemia ip in BDF1 mice, survival T/C
Test: NCI In Vivo Anticancer Drug Screen. Data for tumor model L1210 Leukemia (intraperitoneal) in B6D2F1 (BDF1) mice
Conditions: higher = longer survival
Procedure, shortened: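 Mice bearing the transplanted tumor received compound or vehicle. Survival of the treated group was divided by that of the vehicle-treated control group to give the ratio.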

[1] = endpoint: mean survival time, dose: 100.0 mg/kg/injection, schedule: Q01DX009 (ip), vehicle: Klucel (hydroxypropylcellulose) (HPC)
[2] = endpoint: mean survival time, dose: 100.0 mg/kg/injection, schedule: Q04DX003 (ip), vehicle: Klucel (hydroxypropylcellulose) (HPC)
[3] = endpoint: mean survival time, dose: 200.0 mg/kg/injection, schedule: Q01DX009 (ip), vehicle: Klucel (hydroxypropylcellulose) (HPC)
[4] = endpoint: mean survival time, dose: 200.0 mg/kg/injection, schedule: Q04DX003 (ip), vehicle: Klucel (hydroxypropylcellulose) (HPC)
[5] = endpoint: mean survival time, dose: 400.0 mg/kg/injection, schedule: Q04DX003 (ip), vehicle: Klucel (hydroxypropylcellulose) (HPC)
[6] = endpoint: mean survival time, dose: 50.0 mg/kg/injection, schedule: Q01DX001 (ip), vehicle: saline
[7] = endpoint: mean survival time, dose: 100.0 mg/kg/injection, schedule: Q01DX001 (ip), vehicle: saline
[8] = endpoint: mean survival time, dose: 200.0 mg/kg/injection, schedule: Q01DX001 (ip), vehicle: saline
[9] = endpoint: mean survival time, dose: 400.0 mg/kg/injection, schedule: Q01DX001 (ip), vehicle: saline
[10] = endpoint: mean survival time, dose: 400.0 mg/kg/injection, schedule: Q01DX009 (ip), vehicle: Klucel (hydroxypropylcellulose) (HPC)
[11] = endpoint: mean survival time, dose: 100.0 mg/kg/injection, schedule: Q01DX001 (ip), vehicle: carboxymethylcellulose (CMC)
[12] = endpoint: mean survival time, dose: 200.0 mg/kg/injection, schedule: Q01DX001 (ip), vehicle: carboxymethylcellulose (CMC)
[13] = endpoint: mean survival time, dose: 400.0 mg/kg/injection, schedule: Q01DX001 (ip), vehicle: carboxymethylcellulose (CMC)

Measured: T/C

CCC(=O)OCc1cc2ccccc2c(-c2c(OC(=O)CC)c(COC(=O)CC)cc3ccccc23)c1OC(=O)CC
inactive: endpoint: mean survival time, dose: 100.0 mg/kg/injection, schedule: Q01DX001 (ip), vehicle: saline with Tween-80 106 % of control | endpoint: mean survival time, dose: 200.0 mg/kg/injection, schedule: Q01DX001 (ip), vehicle: saline with Tween-80 113 % of control | endpoint: mean survival time, dose: 400.0 mg/kg/injection, schedule: Q01DX001 (ip), vehicle: saline with Tween-80 88 % of control

COc1ccc(I)c([N+](=O)[O-])c1
inactive: [1] 96 % of control | [2] 100 % of control | [3] 96 % of control | [4] 94 % of control | [5] 103 % of control

COc1cc2ccnc(C=O)c2cc1OC
inactive: [6] 96 % of control | [7] 95 % of control | [8] 101 % of control

NC(CO)C(O)c1ccc(-c2ccccc2)cc1 (stereo not drawn)
inactive: endpoint: mean survival time, dose: 75.0 mg/kg/injection, schedule: Q04DX003 (ip), vehicle: Klucel (hydroxypropylcellulose) (HPC) 108 % of control | endpoint: mean survival time, dose: 100.0 mg/kg/injection, schedule: Q01DX001 (ip), vehicle: Klucel (hydroxypropylcellulose) (HPC) 94 % of control | endpoint: mean survival time, dose: 150.0 mg/kg/injection, schedule: Q04DX003 (ip), vehicle: Klucel (hydroxypropylcellulose) (HPC) 106 % of control | endpoint: mean survival time, dose: 200.0 mg/kg/injection, schedule: Q01DX001 (ip), vehicle: Klucel (hydroxypropylcellulose) (HPC) 92 % of control | endpoint: mean survival time, dose: 300.0 mg/kg/injection, schedule: Q04DX003 (ip), vehicle: Klucel (hydroxypropylcellulose) (HPC) 101 % of control | endpoint: mean survival time, dose: 400.0 mg/kg/injection, schedule: Q01DX001 (ip), vehicle: Klucel (hydroxypropylcellulose) (HPC) 92 % of control

NC(Cc1nn[nH]n1)C(=O)O (stereo not drawn)
inactive: endpoint: mean survival time, dose: 100.0 mg/kg/injection, schedule: Q01DX009 (ip), vehicle: water 102 % of control | endpoint: mean survival time, dose: 100.0 mg/kg/injection, schedule: Q04DX003 (ip), vehicle: water 96 % of control | endpoint: mean survival time, dose: 200.0 mg/kg/injection, schedule: Q01DX009 (ip), vehicle: water 102 % of control | endpoint: mean survival time, dose: 200.0 mg/kg/injection, schedule: Q04DX003 (ip), vehicle: water 94 % of control | endpoint: mean survival time, dose: 400.0 mg/kg/injection, schedule: Q01DX009 (ip), vehicle: water 98 % of control | endpoint: mean survival time, dose: 400.0 mg/kg/injection, schedule: Q04DX003 (ip), vehicle: water 88 % of control

CCCCCCC(C)O[Si](C)c1ccccc1C (stereo not drawn)
inactive: endpoint: mean survival time, dose: 100.0 mg/kg/injection, schedule: Q01DX009 (ip), vehicle: saline with Tween-80 98 % of control | endpoint: mean survival time, dose: 100.0 mg/kg/injection, schedule: Q04DX003 (ip), vehicle: saline with Tween-80 98 % of control | endpoint: mean survival time, dose: 200.0 mg/kg/injection, schedule: Q01DX009 (ip), vehicle: saline with Tween-80 100 % of control | endpoint: mean survival time, dose: 200.0 mg/kg/injection, schedule: Q04DX003 (ip), vehicle: saline with Tween-80 98 % of control | endpoint: mean survival time, dose: 400.0 mg/kg/injection, schedule: Q01DX009 (ip), vehicle: saline with Tween-80 111 % of control | endpoint: mean survival time, dose: 400.0 mg/kg/injection, schedule: Q04DX003 (ip), vehicle: saline with Tween-80 98 % of control

CC(C(=O)c1ccccc1)C(N[N+](C)(C)C)c1ccccc1 (stereo not drawn)
inactive: endpoint: mean survival time, dose: 6.25 mg/kg/injection, schedule: Q04DX003 (ip), vehicle: saline 91 % of control | endpoint: mean survival time, dose: 12.5 mg/kg/injection, schedule: Q04DX003 (ip), vehicle: saline 97 % of control | endpoint: mean survival time, dose: 25.0 mg/kg/injection, schedule: Q04DX003 (ip), vehicle: saline 97 % of control

Cc1nn2cnnc2s1
inactive: [6] 98 % of control | [7] 101 % of control | [8] 98 % of control | [9] 101 % of control

NCC(NCc1ccccc1)(c1ccccc1)c1ccccc1
inactive: endpoint: mean survival time, dose: 20.0 mg/kg/injection, schedule: Q04DX003 (ip), vehicle: Klucel (hydroxypropylcellulose) (HPC) 94 % of control | endpoint: mean survival time, dose: 40.0 mg/kg/injection, schedule: Q04DX003 (ip), vehicle: Klucel (hydroxypropylcellulose) (HPC) 96 % of control | endpoint: mean survival time, dose: 80.0 mg/kg/injection, schedule: Q04DX003 (ip), vehicle: Klucel (hydroxypropylcellulose) (HPC) 102 % of control

CCC(=O)Oc1ccc(/C=N/NC(N)=S)nc1
inactive: endpoint: mean survival time, dose: 100.0 mg/kg/injection, schedule: Q04DX002 (ip), vehicle: saline with Tween-80 113 % of control

[O-]/[N+](=N\Nc1ccccc1)c1ccccc1
inactive: endpoint: mean survival time, dose: 7.5 mg/kg/injection, schedule: Q01DX009 (ip), vehicle: saline with Tween-80 107 % of control | endpoint: mean survival time, dose: 15.0 mg/kg/injection, schedule: Q01DX009 (ip), vehicle: saline with Tween-80 104 % of control | endpoint: mean survival time, dose: 30.0 mg/kg/injection, schedule: Q01DX009 (ip), vehicle: saline with Tween-80 89 % of control | endpoint: mean survival time, dose: 60.0 mg/kg/injection, schedule: Q01DX009 (ip), vehicle: saline with Tween-80 96 % of control

CCCCCCCCCCCCCCCCCCNC1=C(Cl)C(=O)C(NCCCCCCCCCCCCCCCCCC)=C(Cl)C1=O
inactive: endpoint: mean survival time, dose: 50.0 mg/kg/injection, schedule: Q01DX001 (ip), vehicle: carboxymethylcellulose (CMC) 100 % of control

CCN(CC)C(=S)Nc1ccc([N+](=O)[O-])cc1
inactive: [1] 104 % of control | [3] 86 % of control | [10] 100 % of control

CCOC(=O)C(=O)Cc1cnc2ccccc2n1
inactive: [1] 113 % of control | [2] 97 % of control | [3] 94 % of control | [4] 96 % of control | [10] 92 % of control | [5] 100 % of control

CC(S)c1ccc2c(c1)Cc1ccccc1-2 (stereo not drawn)
inactive: [11] 101 % of control | [12] 101 % of control | [13] 104 % of control

O=C(COc1cccc(Cl)c1Cl)Nc1ccc[n+](Cc2ccc(S(=O)(=O)F)cc2)c1
inactive: [2] 104 % of control | [4] 100 % of control

CC/C(=C(/CC)c1ccc(OP(=O)(O)O)cc1)c1ccc(OP(=O)(O)O)cc1
inactive: [11] 108 % of control | endpoint: mean survival time, dose: 100.0 mg/kg/injection, schedule: Q01DX001 (ip), vehicle: water 101 % of control | endpoint: mean survival time, dose: 100.0 mg/kg/injection, schedule: Q04DX003 (sc), vehicle: olive oil, sesame oil, peanut oil 103 % of control | [12] 95 % of control | endpoint: mean survival time, dose: 200.0 mg/kg/injection, schedule: Q01DX001 (ip), vehicle: water 97 % of control | endpoint: mean survival time, dose: 200.0 mg/kg/injection, schedule: Q04DX003 (sc), vehicle: olive oil, sesame oil, peanut oil 102 % of control | [13] 106 % of control | endpoint: mean survival time, dose: 400.0 mg/kg/injection, schedule: Q01DX001 (ip), vehicle: water 98 % of control | endpoint: mean survival time, dose: 400.0 mg/kg/injection, schedule: Q04DX003 (sc), vehicle: olive oil, sesame oil, peanut oil 107 % of control

NCCCNCCCCNCCCN
inactive: endpoint: mean survival time, dose: 2.0 mg/kg/injection, schedule: Q01DX010 (ip), vehicle: other 103 % of control | endpoint: mean survival time, dose: 4.0 mg/kg/injection, schedule: Q01DX010 (ip), vehicle: other 103 % of control | endpoint: mean survival time, dose: 8.0 mg/kg/injection, schedule: Q01DX010 (ip), vehicle: other 97 % of control | endpoint: mean survival time, dose: 16.0 mg/kg/injection, schedule: Q01DX010 (ip), vehicle: other 92 % of control | endpoint: mean survival time, dose: 32.0 mg/kg/injection, schedule: Q01DX010 (ip), vehicle: other 97 % of control | endpoint: median survival time, dose: 6.3 mg/kg/injection, schedule: Q01DX009 (ip), vehicle: water 87 % of control and 90 % of control | endpoint: median survival time, dose: 12.5 mg/kg/injection, schedule: Q01DX009 (ip), vehicle: water 96 % of control and 100 % of control | endpoint: median survival time, dose: 25.0 mg/kg/injection, schedule: Q01DX009 (ip), vehicle: water 94 % of control and 95 % of control | endpoint: median survival time, dose: 50.0 mg/kg/injection, schedule: Q01DX009 (ip), vehicle: water 96 % of control and 100 % of control

CN(C)Cc1ccccc1COC(=O)c1ccccc1
inactive: endpoint: mean survival time, dose: 100.0 mg/kg/injection, schedule: Q04DX002 (ip), vehicle: Klucel (hydroxypropylcellulose) (HPC) 119 % of control | endpoint: mean survival time, dose: 200.0 mg/kg/injection, schedule: Q04DX002 (ip), vehicle: Klucel (hydroxypropylcellulose) (HPC) 105 % of control | endpoint: mean survival time, dose: 400.0 mg/kg/injection, schedule: Q04DX002 (ip), vehicle: Klucel (hydroxypropylcellulose) (HPC) 97 % of control

CC(=O)NC(C)(S)C(=O)O (stereo not drawn)
inactive: [7] 103 % of control | [8] 96 % of control | [9] 107 % of control
